Results published in patent US12391706B2, “Multi-target tyrosine kinase inhibitor” (SHENZHEN NEPTUNUS PHARMACEUTICAL RESEARCH INSTITUTE CO., …, priority 2020, dated 2025).

System: not listed separately
Test: Solubility test (water), Chinese Pharmacopoeia 2015
Assay type: physicochemical
Conditions: 25° C.±2° C., dissolution within 30 minutes
Experimental: The series of compounds synthesized in Examples 1-24 were subjected to solubility test (water), according to the solubility test methods in Chinese Pharmacopoeia, 2015 Edition. The specific test operations and evaluation criteria are as follows: An appropriate amount (1 mg-10 mg) of finely powdered compound was weighed, placed in a certain volume of solvent at 25° C.±2° C., and shaken vigorously for 30 seconds every 5 minutes; the dissolution within 30 minutes was observed. It was considered completely dissolved if there were no visible particles or droplets of the solute. [table]

SMILES	Water solubility test Result
CC(N)C(=O)OCCn1cc(-c2cc3nccc(Oc4ccc(NC(=O)C5(C(=O)Nc6ccc(F)cc6)CC5)cc4F)c3s2)cn1 (stereo not drawn) [td32-4P7, 2-(4-(7-(2-fluoro-4-(1-((4-fluorophenyl)carbamoyl)cyclopropane-1-carboxamide)phenoxy)thieno[3,2-b]pyridin-2-yl)-1H-pyrazolyl-1-yl)ethyl alaninate]	D (1 g of solute is soluble in 30~100 mL of sovent)
COC(CNCC(=O)OCCn1cc(-c2cc3nccc(Oc4ccc(NC(=O)C5(C(=O)Nc6ccc(F)cc6)CC5)cc4F)c3s2)cn1)OC [td32-4P17, 2-(4-(7-(2-fluoro-4-(1-((4-fluorophenyl)carbamoyl)cyclopropane-1-carboxamide)phenoxy)thieno[3,2-b]pyridin-2-yl)-1H-pyrazolyl-1-yl)ethyl(2,2-dimethoxyethyl) glycinate]	E (1 g of solute is soluble in 100~1000 mL of sovent)
O=C(OCCn1cc(-c2cc3nccc(Oc4ccc(NC(=O)C5(C(=O)Nc6ccc(F)cc6)CC5)cc4F)c3s2)cn1)c1cccc(CN2CCCC2)c1 [td32-4P24]	D (1 g of solute is soluble in 30~100 mL of sovent)
NC(=O)CCC(N)C(=O)OCCn1cc(-c2cc3nccc(Oc4ccc(NC(=O)C5(C(=O)Nc6ccc(F)cc6)CC5)cc4F)c3s2)cn1 (stereo not drawn) [td32-4P15, 2-(4-(7-(2-fluoro-4-(1-((4-fluorophenyl)carbamoyl)cyclopropane-1-carboxamide)phenoxy)thieno[3,2-b]pyridin-2-yl)-1H-pyrazolyl-1-yl)ethyl glutaminate]	D (1 g of solute is soluble in 30~100 mL of sovent)
NCC(=O)OCCn1cc(-c2cc3nccc(Oc4ccc(NC(=O)C5(C(=O)Nc6ccc(F)cc6)CC5)cc4F)c3s2)cn1 [td32-4P6, 2-(4-(7-(2-fluoro-4-(1-((4-fluorophenyl)carbamoyl)cyclopropane-1-carboxamide)phenoxy)thieno[3,2-b]pyridin-2-yl)-1H-pyrazolyl-1-yl)ethyl glycinate]	C (1 g of solute is soluble in 10~30 mL of sovent)
O=C(OCCn1cc(-c2cc3nccc(Oc4ccc(NC(=O)C5(C(=O)Nc6ccc(F)cc6)CC5)cc4F)c3s2)cn1)c1ccc(CN2CCCC2)cc1 [td32-4P23]	D (1 g of solute is soluble in 30~100 mL of sovent)
O=C(O)CCC(=O)OCCn1cc(-c2cc3nccc(Oc4ccc(NC(=O)C5(C(=O)Nc6ccc(F)cc6)CC5)cc4F)c3s2)cn1 [td32-4P1, 4-(2-(4-(7-(2-fluoro-4-(1-((4-fluorophenyl)carbamoyl)cyclopropane-1-carboxamide)phenoxy)thieno[3,2-b]pyridin-2-yl)-1H-pyrazolyl-1-yl)ethoxy)-4-oxobutyric acid]	F (1 g of solute is soluble in 1000~10000 mL of sovent)
O=C(Nc1ccc(F)cc1)C1(C(=O)Nc2ccc(Oc3ccnc4cc(-c5cnn(CCOP(=O)(O)O)c5)sc34)c(F)c2)CC1 [td32-4P2, 2-(4-(7-(2-fluoro-4-(1-((4-fluorophenyl)carbamoyl)cyclopropane-1-carboxamide)phenoxy)thieno[3,2-b]pyridin-2-yl)-1H-pyrazolyl-1-yl)ethyl phosphate]	F (1 g of solute is soluble in 1000~10000 mL of sovent)
CC(C(=O)OCCn1cc(-c2cc3nccc(Oc4ccc(NC(=O)C5(C(=O)Nc6ccc(F)cc6)CC5)cc4F)c3s2)cn1)N(C)C (stereo not drawn) [td32-4P18, 2-(4-(7-(2-fluoro-4-(1-((4-fluorophenyl)carbamoyl)cyclopropane-1-carboxamide)phenoxy)thieno[3,2-b]pyridin-2-yl)-1H-pyrazolyl-1-yl)ethyl N,N-dimethyl alaninate]	D (1 g of solute is soluble in 30~100 mL of sovent)
O=C(OCCn1cc(-c2cc3nccc(Oc4ccc(NC(=O)C5(C(=O)Nc6ccc(F)cc6)CC5)cc4F)c3s2)cn1)c1ccc(CN2CCOCC2)cc1 [td32-4P19, 2-(4-(7-(2-fluoro-4-(1-((4-fluorophenyl)carbamoyl)cyclopropane-1-carboxamide)phenoxy)thieno[3,2-b]pyridin-2-yl)-1H-pyrazolyl-1-yl)ethyl 4-(morpholinylmethyl) benzoate]	F (1 g of solute is soluble in 1000~10000 mL of sovent)
CSCCC(N)C(=O)OCCn1cc(-c2cc3nccc(Oc4ccc(NC(=O)C5(C(=O)Nc6ccc(F)cc6)CC5)cc4F)c3s2)cn1 (stereo not drawn) [td32-4P11, 2-(4-(7-(2-fluoro-4-(1-((4-fluorophenyl)carbamoyl)cyclopropane-1-carboxamide)phenoxy)thieno[3,2-b]pyridin-2-yl)-1H-pyrazolyl-1-yl)ethyl methioninate]	E (1 g of solute is soluble in 100~1000 mL of sovent)
O=C(OCCn1cc(-c2cc3nccc(Oc4ccc(NC(=O)C5(C(=O)Nc6ccc(F)cc6)CC5)cc4F)c3s2)cn1)c1cccc(CN2CCOCC2)c1 [td32-4P20, 2-(4-(7-(2-fluoro-4-(1-((4-fluorophenyl)carbamoyl)cyclopropane-1-carboxamide)phenoxy)thieno[3,2-b]pyridin-2-yl)-1H-pyrazolyl-1-yl)ethyl 3-(morpholinylmethyl) benzoate]	F (1 g of solute is soluble in 1000~10000 mL of sovent)
CCN(CC)CC(=O)OCCn1cc(-c2cc3nccc(Oc4ccc(NC(=O)C5(C(=O)Nc6ccc(F)cc6)CC5)cc4F)c3s2)cn1 [td32-4P4, 2-(4-(7-(2-fluoro-4-(1-((4-fluorophenyl)carbamoyl)cyclopropane-1-carboxamide)phenoxy)thieno[3,2-b]pyridin-2-yl)-1H-pyrazolyl-1-yl)ethyldiethyl glycinate]	C (1 g of solute is soluble in 10~30 mL of sovent)
O=C(CN1CCOCC1)OCCn1cc(-c2cc3nccc(Oc4ccc(NC(=O)C5(C(=O)Nc6ccc(F)cc6)CC5)cc4F)c3s2)cn1 [td32-4P5, 2-(4-(7-(2-fluoro-4-(1-((4-fluorophenyl)carbamoyl)cyclopropane-1-carboxamide)phenoxy)thieno[3,2-b]pyridin-2-yl)-1H-pyrazolyl-1-yl)ethyl 2-morpholine acetate]	C (1 g of solute is soluble in 10~30 mL of sovent)
CN1CCN(Cc2ccc(C(=O)OCCn3cc(-c4cc5nccc(Oc6ccc(NC(=O)C7(C(=O)Nc8ccc(F)cc8)CC7)cc6F)c5s4)cn3)cc2)CC1 [td32-4P21, 2-(4-(7-(2-fluoro-4-(1-((4-fluorophenyl)carbamoyl)cyclopropane-1-carboxamide)phenoxy)thieno[3,2-b]pyridin-2-yl)-1H-pyrazol-1-yl)ethyl 4-((methylpiperazin-1-yl)methyl) benzoate]	D (1 g of solute is soluble in 30~100 mL of sovent)
NC(=O)CC(N)C(=O)OCCn1cc(-c2cc3nccc(Oc4ccc(NC(=O)C5(C(=O)Nc6ccc(F)cc6)CC5)cc4F)c3s2)cn1 (stereo not drawn) [td32-4P14, 2-(4-(7-(2-fluoro-4-(1-((4-fluorophenyl)carbamoyl)cyclopropane-1-carboxamide)phenoxy)thieno[3,2-b]pyridin-2-yl)-1H-pyrazolyl-1-yl)ethyl asparaginate]	D (1 g of solute is soluble in 30~100 mL of sovent)
NC(Cc1ccccc1)C(=O)OCCn1cc(-c2cc3nccc(Oc4ccc(NC(=O)C5(C(=O)Nc6ccc(F)cc6)CC5)cc4F)c3s2)cn1 [td32-4P12, 2-(4-(7-(2-fluoro-4-(1-((4-fluorophenyl)carbamoyl)cyclopropane-1-carboxamide)phenoxy)thieno[3,2-b]pyridin-2-yl)-1H-pyrazolyl-1-yl)ethyl L-phenylalaninate]	F (1 g of solute is soluble in 1000~10000 mL of sovent)
CN1CCN(Cc2cccc(C(=O)OCCn3cc(-c4cc5nccc(Oc6ccc(NC(=O)C7(C(=O)Nc8ccc(F)cc8)CC7)cc6F)c5s4)cn3)c2)CC1 [td32-4P22, 2-(4-(7-(2-fluoro-4-(1-((4-fluorophenyl)carbamoyl)cyclopropane-1-carboxamide)phenoxy)thieno[3,2-b]pyridin-2-yl)-1H-pyrazolyl-1-yl)ethyl 3-((methylpiperazin-1-yl)methyl) benzoate]	D (1 g of solute is soluble in 30~100 mL of sovent)
O=C(OCCn1cc(-c2cc3nccc(Oc4ccc(NC(=O)C5(C(=O)Nc6ccc(F)cc6)CC5)cc4F)c3s2)cn1)C1CCCN1 (stereo not drawn) [td32-4P13, 2-(4-(7-(2-fluoro-4-(1-((4-fluorophenyl)carbamoyl)cyclopropane-1-carboxamide)phenoxy)thieno[3,2-b]pyridin-2-yl)-1H-pyrazolyl-1-yl)ethyl prolinate]	E (1 g of solute is soluble in 100~1000 mL of sovent)
CC(C)CC(N)C(=O)OCCn1cc(-c2cc3nccc(Oc4ccc(NC(=O)C5(C(=O)Nc6ccc(F)cc6)CC5)cc4F)c3s2)cn1 (stereo not drawn) [td32-4P8, 2-(4-(7-(2-fluoro-4-(1-((4-fluorophenyl)carbamoyl)cyclopropane-1-carboxamide)phenoxy)thieno[3,2-b]pyridin-2-yl)-1H-pyrazolyl-1-yl)ethyl leucinate]	E (1 g of solute is soluble in 100~1000 mL of sovent)

System: MKN-45 gastric cancer cells
Test: Gastric cancer cell MKN45 xenograft model
Assay type: in vivo, nude mice
Conditions: oral 100 mg·kg^−1 once a day for 14 days
Excerpt: • 1. Compounds (td32-4, td32-4P3, td32-4P6, td32-4P9, td32-4P10) were selected for in vivo activity evaluation at a single concentration. The animal model was gastric cancer cell MKN45 xenograft model.
Test method: 5×10^6 MKN-45 gastric cancer cells were inoculated under the fat pad of the right rib of nude mice, and the tumor formation was observed. Two weeks after the inoculation, the tumor-bearing mice were divided into groups and orally administered with td32-4, td32-4P3, td32-4P6, td32-4P9, and td32-4P10 at a dose of 100 mg·kg^−1, once a day for 14 days, respectively. Tumor volumes were measured with a caliper and recorded.

SMILES	tumor inhibitory effect (tumor volume)
NCC(=O)OCCn1cc(-c2cc3nccc(Oc4ccc(NC(=O)C5(C(=O)Nc6ccc(F)cc6)CC5)cc4F)c3s2)cn1 [td32-4P6, 2-(4-(7-(2-fluoro-4-(1-((4-fluorophenyl)carbamoyl)cyclopropane-1-carboxamide)phenoxy)thieno[3,2-b]pyridin-2-yl)-1H-pyrazolyl-1-yl)ethyl glycinate]	moderate inhibitory activity
